The subject of data set [1] is Caco-2 cell monolayers. Kind of data set: Efflux-inhibited permeability across Caco-2 cell monolayers. It is filed as in vitro ADME. For orientation: Caco-2 cells form a polarised layer with tight junctions and transporters.
In data set [2] the test system is DNA gyrase B. More on the design: method as in earlier work. To be noted: Table S4, ref Brvar, M., et al., Bioorg. Med. Chem. Lett. 2010, 20, 3, 958–962 & Boehm, H. J., J. Med. Chem. 2000, 43, 14, 2664-2674; cited from earlier work.
Data set [3] has as its system Trichophyton mentagrophytes 833. More on the design: method as in Tamai, S., et al., J. Antibiot., 1982, 35, 1130-1136. The note with it: Table S4; ref Tamai, S., et al., J. Antibiot., 1982, 35, 1130-1136; cited from earlier work.
In data set [4] the test system is Trichophyton asteroides 429. Set-up: method as in Tamai, S., et al., J. Antibiot., 1982, 35, 1130-1136. To be noted: Table S4; ref Tamai, S., et al., J. Antibiot., 1982, 35, 1130-1136; cited from earlier work.
Data set [5] concerns DAUDI cell line. More on the design: method as in Cribiu, R., et al., Angew. Chem. Int. Ed. 2009, 48, 8780–8783. To be noted: Table S4; ref Cribiu, R., et al., Angew. Chem. Int. Ed. 2009, 48, 8780–8783; cited from earlier work.
Data set [6] has as its system HL-60 cell line. More on the design: method as in Cribiu, R., et al., Angew. Chem. Int. Ed. 2009, 48, 8780–8783. The note with it: Table S4; ref Cribiu, R., et al., Angew. Chem. Int. Ed. 2009, 48, 8780–8783; cited from earlier work.

Structures are written as SMILES.

Consider `CC(=O)N1CCC[C@H]1C(=O)N[C@@H]1COC(=O)c2ccccc2CSC[C@H](C(=O)N(C)C)NC1=O` [Compound 14, (4S,7R)-7-((S)-1-Acetylpyrrolidine-2-carboxamido)-N,N-dimethyl-6,10-dioxo-1,3,4,5,6,7,8,10-octahydrobenzo[j][1]oxa[8]thia[5]azacyclododecine-4-carboxamide], for which the “permeability across Caco-2 cell monolayers (in words)” value in data set [1] is “low-to-moderate”.
With `Cc1c(O)cc(O)c2c1C(=O)OCC(NC(=O)C1C(O)CCN1C(=O)C(N)CO)C(=O)NC(C(=O)NC(C)C(=O)O)CSC2` (stereo not drawn) [Cyclothialidine], the “DNA gyrase B ATPase activity” value in data set [2] is given as “Inhibition”.
Take `Oc1ccc2cc1Oc1ccc(cc1)CC1CNC(CN1)C2` (stereo not drawn) [Piperazinomycin]: the “Inhibition of Trichophyton mentagrophytes 833” value in data set [3] is recorded as “Inhibition”. The “Inhibition of Trichophyton asteroides 429” value in data set [4] is reported as “Inhibition”.
Turning to `CC=CCC=CC(C)CC(O)C1CC2OC2C=CC(O)C(O)C=CCC(C)CC(=O)O1` (stereo not drawn) [Iriomoteolide 3a], the “Antiproliferative activity vs DAUDI cell line” value in data set [5] is “Antiproliferative activity”. Moreover, the “Antiproliferative activity vs HL-60 cell line” value in data set [6] is listed as “Antiproliferative activity”.

Values taken from PMC7872424, “Mining Natural Products for Macrocycles to Drug Difficult Targets” (Journal of Medicinal Chemistry, 2020).
